{"source": "paper PMC12624955", "about": "“Exploring diarylheptanoid derivatives to target LIMK1 as potential agents against colorectal cancer” (Journal of Enzyme Inhibition and Medicinal Chemistry, 2025)", "key": {"[1]": {"tested_on": "HT-29", "experiment": "MTT assay (cell viability)", "format": "cell-based", "settings": "Homo sapiens, 72 h, mean ± SD", "experimental": "(§1) Colorectal cell line, HCT-116, was purchased from the Bioresource Collection and Research Centre (BCRC, Hsinchu, Taiwan), while HT-29 was obtained from the American Type Culture Collection (ATCC, Manassas, VA, USA). Both cell lines were maintained in McCoy’s 5 A medium (with L-glutamine and 2.2 g/L NaHCO3, M4892, Sigma) supplemented with 10% foetal bovine serum (Corning Incorporated, NY, USA) and 1% penicillin–streptomycin–amphotericin B (100 unit/ml penicillin G, 0.1 mg/ml streptomycin sulphate, 0.25 μg/ml amphotericin B, Corning Incorporated, NY, USA). All cultures were maintained in a humidified incubator at 37 °C with 5% CO2.\n(§2) Cells were seeded in 96-well plates at a density of 3 × 10^3 cells/well in 100 μl of culture medium and treated with compounds at the indicated concentrations (0.3, 1, 3, 10, and 30 μM) for 72 h. Following treatment, the 3-(4,5-dimethylthiazol-2-yl)-2,5-diphenyltetrazolium bromide (MTT) solution (5 mg/ml in Phosphate-buffered saline (PBS)) was added to each well to reach a final concentration of 0.5 mg/ml, and the cells were incubated at 37 °C for 1 h. The resulting formazan crystal was dissolved in 100 µl of DMSO, and the absorbance was measured at 550 nm using an ELISA reader (Molecular Device, Sunnyvale, CA, USA)."}, "[2]": {"tested_on": "HCT-116", "experiment": "MTT assay (cell viability)", "format": "cell-based", "settings": "Homo sapiens, 72 h, mean ± SD", "experimental": "as §1, §2"}, "[3]": {"molecular_target": "T1, DAPK1 (Homo sapiens, UniProt P53355)", "T1 construct": "purchased Thermo Fisher Scientific SelectScreen", "experiment": "SelectScreen kinase panel, Adapta Universal kinase assay", "format": "biochemical", "settings": "read-out: Inhibition percentage at 1 μM", "experimental": "Kinase panel screening was carried out using the SelectScreen Kinase Assay (Thermo Fisher Scientific, Waltham, MA, USA). Three complementary assay formats were applied: the Z′-LYTE kinase assay, LanthaScreen Eu kinase binding assay, and Adapta Universal kinase assay. The kinases selected for this study and the corresponding assay formats are summarised in Supplementary Table S1. The Adapta Universal Kinase Assay (Thermo Fisher Scientific, Waltham, MA, USA) was used to assess kinase activity. This homogeneous, fluorescence-based immunoassay quantifies kinase activity by detecting ADP produced during the enzymatic reaction, according to the manufacturer’s instructions (https://www.thermofisher.com/tw/zt/home/industrial/pharma-biopharma/drug-discovery-development/target-and-lead-identification-and-validation/kinasebiology/kinase-activity-assays/adapta-universal-kinase-assay.html)."}, "[4]": {"molecular_target": "T2, MAP2K1 (MEK1) (Homo sapiens, UniProt Q02750)", "T2 construct": "purchased Thermo Fisher Scientific SelectScreen", "experiment": "SelectScreen kinase panel, LanthaScreen Eu kinase binding assay", "settings": "read-out: Inhibition percentage at 1 μM", "experimental": "(§3) The inhibitory activities of the compounds against kinases were tested using the SelectScreen Kinase assay from Thermo Fisher Scientific in Waltham, MA, USA. The LanthaScreen Eu kinase binding assay was used to validate the LIMK1 inhibition activity of the compounds, and was performed according to the manufacturer’s protocol (https://www.thermofisher.com/tw/zt/home/industrial/pharma-biopharma/drug-discovery-development/target-and-lead-identification-and-validation/kinasebiology/kinase-activity-assays/lanthascreentm-eu-kinase-binding-assay/lanthascreen-eu-kinase-binding-assay-validation-table.html). This endpoint assay quantifies inhibitor binding through the displacement of a fluorescently labelled ATP-competitive tracer from LIMK1. A mixture of the 100× compounds, 2× LIMK1/antibody mixture (Eu-anti-His), 4× tracer 236, and kinase buffer were mixed sequentially. After incubation at room temperature for 1 h, the mixture was analysed using a fluorescence plate reader. The kinase inhibition assay results were expressed as the average of two replicates.\n(§4) Kinase panel screening was carried out using the SelectScreen Kinase Assay (Thermo Fisher Scientific, Waltham, MA, USA). Three complementary assay formats were applied: the Z′-LYTE kinase assay, LanthaScreen Eu kinase binding assay, and Adapta Universal kinase assay. The kinases selected for this study and the corresponding assay formats are summarised in Supplementary Table S1."}, "[5]": {"molecular_target": "T3, TGFBR1 (ALK5) (Homo sapiens, UniProt P36897)", "T3 construct": "purchased Thermo Fisher Scientific SelectScreen", "experiment": "SelectScreen kinase panel, LanthaScreen Eu kinase binding assay", "settings": "read-out: Inhibition percentage at 1 μM", "experimental": "as §3, §4"}, "[6]": {"molecular_target": "T4, WEE1 (Homo sapiens, UniProt P30291)", "T4 construct": "purchased Thermo Fisher Scientific SelectScreen", "experiment": "SelectScreen kinase panel, LanthaScreen Eu kinase binding assay", "settings": "read-out: Inhibition percentage at 1 μM", "experimental": "as §3, §4"}, "[7]": {"molecular_target": "T5, VRK2 (Homo sapiens, UniProt Q86Y07)", "T5 construct": "purchased Thermo Fisher Scientific SelectScreen", "T5 sequence (Q86Y07 whole entry)": "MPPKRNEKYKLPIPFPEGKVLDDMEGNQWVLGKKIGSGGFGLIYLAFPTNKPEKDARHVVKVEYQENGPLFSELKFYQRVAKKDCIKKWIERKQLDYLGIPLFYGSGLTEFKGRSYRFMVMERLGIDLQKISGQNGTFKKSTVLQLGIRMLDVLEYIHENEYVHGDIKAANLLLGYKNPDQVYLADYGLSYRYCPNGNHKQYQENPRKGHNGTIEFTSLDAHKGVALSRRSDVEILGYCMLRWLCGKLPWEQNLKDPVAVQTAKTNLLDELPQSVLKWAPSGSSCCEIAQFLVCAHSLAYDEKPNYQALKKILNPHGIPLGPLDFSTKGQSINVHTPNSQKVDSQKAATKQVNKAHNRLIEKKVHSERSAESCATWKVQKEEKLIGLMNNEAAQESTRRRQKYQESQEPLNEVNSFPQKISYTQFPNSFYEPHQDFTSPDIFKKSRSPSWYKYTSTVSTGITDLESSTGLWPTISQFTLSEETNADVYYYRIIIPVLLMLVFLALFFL", "experiment": "SelectScreen kinase panel, LanthaScreen Eu kinase binding assay", "settings": "read-out: Inhibition percentage at 1 μM", "experimental": "as §3, §4"}, "[8]": {"molecular_target": "T6, BRAF (Homo sapiens, UniProt P15056)", "T6 construct": "purchased Thermo Fisher Scientific SelectScreen", "T6 sequence (P15056 whole entry)": "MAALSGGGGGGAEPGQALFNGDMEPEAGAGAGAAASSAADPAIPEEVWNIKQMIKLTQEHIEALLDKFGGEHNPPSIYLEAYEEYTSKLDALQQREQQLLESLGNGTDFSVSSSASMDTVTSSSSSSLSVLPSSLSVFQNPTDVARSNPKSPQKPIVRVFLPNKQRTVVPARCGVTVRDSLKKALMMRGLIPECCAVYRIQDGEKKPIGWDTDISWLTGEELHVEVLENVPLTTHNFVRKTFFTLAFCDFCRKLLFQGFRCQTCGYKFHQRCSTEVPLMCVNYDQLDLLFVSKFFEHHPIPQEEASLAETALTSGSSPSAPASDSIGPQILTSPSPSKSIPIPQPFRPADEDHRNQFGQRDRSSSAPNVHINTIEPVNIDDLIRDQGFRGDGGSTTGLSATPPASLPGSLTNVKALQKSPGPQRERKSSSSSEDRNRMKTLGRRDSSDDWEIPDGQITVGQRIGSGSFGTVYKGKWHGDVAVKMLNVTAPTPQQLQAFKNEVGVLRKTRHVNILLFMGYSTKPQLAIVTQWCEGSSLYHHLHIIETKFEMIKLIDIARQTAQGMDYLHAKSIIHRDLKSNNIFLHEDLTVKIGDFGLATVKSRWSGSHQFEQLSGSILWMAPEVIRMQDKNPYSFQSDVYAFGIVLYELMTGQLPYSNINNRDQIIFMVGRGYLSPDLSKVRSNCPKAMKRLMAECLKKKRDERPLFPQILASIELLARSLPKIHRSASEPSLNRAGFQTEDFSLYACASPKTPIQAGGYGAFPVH", "experiment": "SelectScreen kinase panel, LanthaScreen Eu kinase binding assay", "settings": "read-out: Inhibition percentage at 1 μM", "experimental": "as §3, §4"}, "[9]": {"molecular_target": "T7, ICK (Homo sapiens, UniProt Q9UPZ9)", "T7 construct": "purchased Thermo Fisher Scientific SelectScreen", "experiment": "SelectScreen kinase panel, LanthaScreen Eu kinase binding assay", "settings": "read-out: Inhibition percentage at 1 μM", "experimental": "as §3, §4"}, "[10]": {"molecular_target": "T8, EPHA3 (Homo sapiens, UniProt P29320)", "T8 construct": "purchased Thermo Fisher Scientific SelectScreen", "experiment": "SelectScreen kinase panel, LanthaScreen Eu kinase binding assay", "settings": "read-out: Inhibition percentage at 1 μM", "experimental": "as §3, §4"}, "[11]": {"molecular_target": "T9, LIMK2 (Homo sapiens, UniProt P53671)", "T9 construct": "purchased Thermo Fisher Scientific SelectScreen", "T9 sequence (P53671 whole entry)": "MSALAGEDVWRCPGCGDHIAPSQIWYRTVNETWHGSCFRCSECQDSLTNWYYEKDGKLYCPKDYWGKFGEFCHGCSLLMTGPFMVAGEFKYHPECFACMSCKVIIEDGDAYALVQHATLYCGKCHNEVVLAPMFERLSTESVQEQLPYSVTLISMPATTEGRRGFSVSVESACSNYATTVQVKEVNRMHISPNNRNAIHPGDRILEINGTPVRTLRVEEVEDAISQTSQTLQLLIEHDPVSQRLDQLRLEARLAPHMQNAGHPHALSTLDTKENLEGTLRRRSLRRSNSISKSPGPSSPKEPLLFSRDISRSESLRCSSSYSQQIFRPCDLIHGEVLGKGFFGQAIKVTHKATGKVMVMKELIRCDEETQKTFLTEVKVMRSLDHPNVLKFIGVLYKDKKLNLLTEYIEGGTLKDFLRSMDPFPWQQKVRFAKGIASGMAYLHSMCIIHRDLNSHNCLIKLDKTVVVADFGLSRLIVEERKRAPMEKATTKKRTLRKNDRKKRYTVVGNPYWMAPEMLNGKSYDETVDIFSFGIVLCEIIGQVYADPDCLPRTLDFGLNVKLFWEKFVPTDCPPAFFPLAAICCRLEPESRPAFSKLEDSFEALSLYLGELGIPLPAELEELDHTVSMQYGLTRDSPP", "experiment": "SelectScreen kinase panel, LanthaScreen Eu kinase binding assay", "settings": "read-out: Inhibition percentage at 1 μM", "experimental": "as §3, §4"}, "[12]": {"molecular_target": "T10, RPS6KA3 (RSK2) (Homo sapiens, UniProt P51812)", "T10 construct": "purchased Thermo Fisher Scientific SelectScreen", "experiment": "SelectScreen kinase panel, Z′-LYTE kinase assay", "format": "biochemical", "settings": "read-out: Inhibition percentage at 1 μM", "experimental": "as §4\n(§5) The Z′-LYTE Kinase Assay (Thermo Fisher Scientific, Waltham, MA, USA) was used to evaluate selected kinases’ activity, according to the manufacturer’s instructions (https://www.thermofisher.com/tw/zt/home/industrial/pharma-biopharma/drug-discovery-development/target-and-lead-identification-and-validation/kinasebiology/kinase-activity-assays/z-lyte/z-lyte-reactivity-table.html). This endpoint assay quantifies kinase activity by detecting peptide substrate phosphorylation. Briefly, a 2× mixture of selected kinase and relevant substrate was prepared in kinase buffer (0.01% polyoxyethylene lauryl ether (BRIJ-35), 50 mM 4-(2-hydroxyethyl)-1-piperazineethanesulfonic acid (HEPES), pH 7.5, 1 mM ethylene glycol-bis(β-aminoethyl ether)-N,N,N′,N′-tetraacetic acid (EGTA), and 10 mM MgCl2). After 1 h incubation at room temperature, 5 μl of 1:128 diluted development reagent solution was added, followed by an additional 1 h incubation. Fluorescence was recorded using a multimode plate reader."}, "[13]": {"molecular_target": "T11, BTK (Homo sapiens, UniProt Q06187)", "T11 construct": "purchased Thermo Fisher Scientific SelectScreen", "experiment": "SelectScreen kinase panel, Z′-LYTE kinase assay", "format": "biochemical", "settings": "read-out: Inhibition percentage at 1 μM", "experimental": "as §4, §5"}, "[14]": {"molecular_target": "T12, NTRK1 (TRKA) (Homo sapiens, UniProt P04629)", "T12 construct": "purchased Thermo Fisher Scientific SelectScreen", "T12 sequence (P04629 33-796)": "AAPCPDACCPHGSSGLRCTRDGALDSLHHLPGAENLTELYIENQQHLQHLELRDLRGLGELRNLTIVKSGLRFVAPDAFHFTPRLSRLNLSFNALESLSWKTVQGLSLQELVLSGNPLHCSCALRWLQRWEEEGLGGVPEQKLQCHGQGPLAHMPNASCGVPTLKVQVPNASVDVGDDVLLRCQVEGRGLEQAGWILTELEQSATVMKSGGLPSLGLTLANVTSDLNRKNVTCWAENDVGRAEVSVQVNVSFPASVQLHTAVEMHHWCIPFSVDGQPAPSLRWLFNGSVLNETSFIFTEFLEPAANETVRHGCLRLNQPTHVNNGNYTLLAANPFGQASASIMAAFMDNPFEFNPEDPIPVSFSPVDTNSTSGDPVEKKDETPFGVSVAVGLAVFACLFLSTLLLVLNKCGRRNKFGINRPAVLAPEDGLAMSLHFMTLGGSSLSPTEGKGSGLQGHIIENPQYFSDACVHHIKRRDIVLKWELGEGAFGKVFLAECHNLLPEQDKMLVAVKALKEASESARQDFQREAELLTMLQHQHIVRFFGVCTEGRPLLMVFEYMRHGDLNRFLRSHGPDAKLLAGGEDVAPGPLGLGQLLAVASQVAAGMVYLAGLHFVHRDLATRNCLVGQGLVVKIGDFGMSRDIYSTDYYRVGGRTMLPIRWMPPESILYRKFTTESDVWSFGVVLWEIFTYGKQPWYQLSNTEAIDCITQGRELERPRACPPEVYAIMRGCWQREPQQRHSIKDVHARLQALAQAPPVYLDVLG", "experiment": "SelectScreen kinase panel, Z′-LYTE kinase assay", "format": "biochemical", "settings": "read-out: Inhibition percentage at 1 μM", "experimental": "as §4, §5"}, "[15]": {"molecular_target": "T13, NEK1 (Homo sapiens, UniProt Q96PY6)", "T13 construct": "purchased Thermo Fisher Scientific SelectScreen", "T13 sequence (Q96PY6 whole entry)": "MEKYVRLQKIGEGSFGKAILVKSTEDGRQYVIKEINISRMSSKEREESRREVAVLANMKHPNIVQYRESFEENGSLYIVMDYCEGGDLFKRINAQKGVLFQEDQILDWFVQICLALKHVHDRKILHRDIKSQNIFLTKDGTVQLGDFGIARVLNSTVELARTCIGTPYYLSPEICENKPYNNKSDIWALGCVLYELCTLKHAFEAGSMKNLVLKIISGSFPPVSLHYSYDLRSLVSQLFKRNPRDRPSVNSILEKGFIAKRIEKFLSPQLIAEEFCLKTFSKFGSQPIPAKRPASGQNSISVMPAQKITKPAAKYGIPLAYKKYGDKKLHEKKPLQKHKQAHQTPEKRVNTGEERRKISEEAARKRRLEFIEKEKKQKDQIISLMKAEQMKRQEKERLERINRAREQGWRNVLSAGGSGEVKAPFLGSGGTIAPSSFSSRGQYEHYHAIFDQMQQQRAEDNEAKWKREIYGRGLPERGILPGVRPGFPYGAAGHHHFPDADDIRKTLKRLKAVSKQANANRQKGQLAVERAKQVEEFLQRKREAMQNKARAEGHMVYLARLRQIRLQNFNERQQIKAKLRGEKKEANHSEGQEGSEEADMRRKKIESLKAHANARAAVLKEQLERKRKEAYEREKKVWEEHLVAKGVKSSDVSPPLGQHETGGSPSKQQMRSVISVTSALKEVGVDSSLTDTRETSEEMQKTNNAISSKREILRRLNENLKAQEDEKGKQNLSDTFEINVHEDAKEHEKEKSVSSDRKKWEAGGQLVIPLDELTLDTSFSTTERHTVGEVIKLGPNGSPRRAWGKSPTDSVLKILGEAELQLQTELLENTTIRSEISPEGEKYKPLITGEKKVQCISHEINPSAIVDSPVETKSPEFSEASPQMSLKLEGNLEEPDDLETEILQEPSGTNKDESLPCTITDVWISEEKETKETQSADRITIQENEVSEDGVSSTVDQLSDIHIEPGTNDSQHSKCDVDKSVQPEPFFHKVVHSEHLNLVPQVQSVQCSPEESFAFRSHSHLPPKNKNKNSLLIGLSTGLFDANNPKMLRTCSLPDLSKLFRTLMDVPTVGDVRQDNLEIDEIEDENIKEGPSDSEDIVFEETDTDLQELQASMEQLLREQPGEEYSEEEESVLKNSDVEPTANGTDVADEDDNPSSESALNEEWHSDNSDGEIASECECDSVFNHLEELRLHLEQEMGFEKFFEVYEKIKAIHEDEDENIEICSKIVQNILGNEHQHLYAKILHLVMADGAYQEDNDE", "experiment": "SelectScreen kinase panel, Z′-LYTE kinase assay", "format": "biochemical", "settings": "read-out: Inhibition percentage at 1 μM", "experimental": "as §4, §5"}, "[16]": {"molecular_target": "T14, AURKA (Aurora A) (Homo sapiens, UniProt O14965)", "T14 construct": "purchased Thermo Fisher Scientific SelectScreen", "T14 sequence (O14965 whole entry)": "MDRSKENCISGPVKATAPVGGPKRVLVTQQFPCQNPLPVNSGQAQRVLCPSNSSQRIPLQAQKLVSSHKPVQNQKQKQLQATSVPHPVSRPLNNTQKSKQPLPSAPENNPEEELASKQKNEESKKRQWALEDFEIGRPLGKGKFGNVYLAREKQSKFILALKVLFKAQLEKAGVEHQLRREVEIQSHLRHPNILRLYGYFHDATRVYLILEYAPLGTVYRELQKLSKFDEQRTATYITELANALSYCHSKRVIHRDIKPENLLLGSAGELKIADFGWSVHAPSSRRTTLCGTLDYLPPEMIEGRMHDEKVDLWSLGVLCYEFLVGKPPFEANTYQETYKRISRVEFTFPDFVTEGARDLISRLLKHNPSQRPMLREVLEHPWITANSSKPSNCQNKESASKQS", "experiment": "SelectScreen kinase panel, Z′-LYTE kinase assay", "format": "biochemical", "settings": "read-out: Inhibition percentage at 1 μM", "experimental": "as §4, §5"}, "[17]": {"molecular_target": "T15, LIMK1 (Homo sapiens, UniProt P53667)", "T15 construct": "purchased Thermo Fisher Scientific (SelectScreen Kinase assay service)", "T15 sequence (P53667 whole entry)": "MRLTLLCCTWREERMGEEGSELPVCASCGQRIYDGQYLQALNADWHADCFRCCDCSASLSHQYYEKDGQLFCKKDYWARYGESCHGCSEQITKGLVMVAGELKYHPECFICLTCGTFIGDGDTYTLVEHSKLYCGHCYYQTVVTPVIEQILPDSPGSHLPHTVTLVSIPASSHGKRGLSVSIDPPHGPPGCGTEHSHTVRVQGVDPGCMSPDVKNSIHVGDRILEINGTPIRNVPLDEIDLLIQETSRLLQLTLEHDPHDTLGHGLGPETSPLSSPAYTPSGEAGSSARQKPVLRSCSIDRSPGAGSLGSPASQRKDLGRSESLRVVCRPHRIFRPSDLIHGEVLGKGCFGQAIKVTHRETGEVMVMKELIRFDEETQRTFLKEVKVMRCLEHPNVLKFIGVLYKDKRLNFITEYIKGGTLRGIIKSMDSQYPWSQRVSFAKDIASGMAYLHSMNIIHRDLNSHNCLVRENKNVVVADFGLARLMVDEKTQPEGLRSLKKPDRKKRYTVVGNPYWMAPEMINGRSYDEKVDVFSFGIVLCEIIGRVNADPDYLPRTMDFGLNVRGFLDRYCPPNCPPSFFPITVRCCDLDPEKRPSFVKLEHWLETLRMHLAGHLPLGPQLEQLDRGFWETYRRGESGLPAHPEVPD", "experiment": "LanthaScreen Eu kinase binding assay (SelectScreen), LIMK1 inhibition", "experimental": "as §3"}}}
{"smiles": "O=C(/C=C/c1ccc(O)c(O)c1)CCCCn1ccc2c(O)cccc21", "note": "[Compound 13a, (E)-1-(3,4-dihydroxyphenyl)-7-(4-hydroxy-1H-indol-1-yl)hept-1-en-3-one]", "values": [{"measurement": "IC50", "setting": "[1]", "value": "28.8 ± 0.4", "unit": "µM"}, {"measurement": "IC50", "setting": "[2]", "value": "18.2 ± 0.9", "unit": "µM"}, {"measurement": "inhibition at 1 µM", "setting": "[3]", "value": -15, "unit": "%"}, {"measurement": "inhibition at 1 µM", "setting": "[4]", "value": 4, "unit": "%"}, {"measurement": "inhibition at 1 µM", "setting": "[5]", "value": 24, "unit": "%"}, {"measurement": "inhibition at 1 µM", "setting": "[6]", "value": 44, "unit": "%"}, {"measurement": "inhibition at 1 µM", "setting": "[7]", "value": 3, "unit": "%"}, {"measurement": "inhibition at 1 µM", "setting": "[8]", "value": 16, "unit": "%"}, {"measurement": "inhibition at 1 µM", "setting": "[9]", "value": 32, "unit": "%"}, {"measurement": "inhibition at 1 µM", "setting": "[10]", "value": 2, "unit": "%"}, {"measurement": "inhibition at 1 µM", "setting": "[11]", "value": 30, "unit": "%"}, {"measurement": "inhibition at 1 µM", "setting": "[12]", "value": 8, "unit": "%"}, {"measurement": "inhibition at 1 µM", "setting": "[13]", "value": 19, "unit": "%"}, {"measurement": "inhibition at 1 µM", "setting": "[14]", "value": -7, "unit": "%"}, {"measurement": "inhibition at 1 µM", "setting": "[15]", "value": -1, "unit": "%"}, {"measurement": "inhibition at 1 µM", "setting": "[16]", "value": 18, "unit": "%"}, {"measurement": "IC50", "setting": "[17]", "value": 0.94, "unit": "µM"}, {"measurement": "inhibition at 1 µM", "setting": "[17]; 1 μM, Figure 4(B), read-out: Inhibition percentage at 1 μM", "value": "> 50", "unit": "%"}, {"measurement": "inhibition at 10 µM", "setting": "[17]; compound at 10 μM, average of two replicates, read-out: Inhibition percentage at 10 μM", "value": 109, "unit": "%"}]}
